# Numbers after ± are expanded uncertainties.
# What was measured:
# [1] = Molar enthalpy of transition or fusion; details: DSC
# [2] = DSC
structure (smiles),measurement,setting,value
COC(=O)[C@H](c1ccccc1Cl)N1CCc2sccc2C1.O=S(=O)(O)O [(S)-(+)-Clopidogrel hydrogen sulfate],Molar enthalpy of transition or fusion,[1]; Crystal 1,7.98 ± 0.335 kcal/mol
same,Molar enthalpy of transition or fusion,[1]; Crystal 2,9.09 ± 0.382 kcal/mol
same,Triple point temperature,[2]; Crystal 1,458.4 ± 1 K
same,Triple point temperature,[2]; Crystal 2,454.7 ± 1 K

# Reference: the NIST ThermoML archive (doi:10.1016/j.jct.2015.06.019)
